Earlier results as cited in patent publication US20240156829A1, “Stable Antiemetic Emulsions for Parenteral Administration” (Slayback Pharma LLC, priority 2022, published 2024).
Counter-ions that a name gives are not always drawn.

Experiments:
[1] = by light or oxygen or heavy metals
[2] = in vivo

SMILES | solubility | Stability in a liquid medium [1] | half-life [2] [h]
C[C@@H](O[C@H]1OCCN(Cc2n[nH]c(=O)[nH]2)[C@H]1c1ccc(F)cc1)c1cc(C(F)(F)F)cc(C(F)(F)F)c1 [Aprepitant, 5-([(2R, 3S)-2-((R)-1-[3,5-bis (trifluoromethyl)phenyl]ethoxy)-3-(4-fluoro-phenyl)morpholino]methyl)-1H-1,2,4-triazol-3(2H)-one] | very poor |  | 
O=C1c2cccc3c2[C@H](CCC3)CN1[C@@H]1CN2CCC1CC2 [Palonosetron hydrochloride, (3aS)-2-[(3S)-1-azabicyclo [2.2.2]octan-3-yl]-3a,4,5,6-tetrahydro-3H-benzo[de] isoquinolin-1-one; hydrochloride] |  | easily oxidized and degraded | 40
